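The concentration for 50% growth inhibition is given as GI50. TGI is the concentration that stops growth completely.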
What was measured:
Assay in all cases: inhibition of tumour cell growth, NCI panel, 384-well format
NCI-H322M lung = tested on: NCI-H322M lung
NCI-H460 NSCLC = tested on: NCI-H460 NSCLC
NCI-H522 lung = tested on: NCI-H522 lung
NCI/ADR-RES ovarian = tested on: NCI/ADR-RES ovarian
OVCAR-3 ovarian = tested on: OVCAR-3 ovarian
OVCAR-4 ovarian = tested on: OVCAR-4 ovarian
OVCAR-5 ovarian = tested on: OVCAR-5 ovarian
OVCAR-8 ovarian = tested on: OVCAR-8 ovarian
PC-3 prostate = tested on: PC-3 prostate
RPMI-8226 leukemia = tested on: RPMI-8226 leukemia
RXF 393 renal = tested on: RXF 393 renal
SF-268 CNS = tested on: SF-268 CNS
SF-295 CNS = tested on: SF-295 CNS
SF-539 CNS = tested on: SF-539 CNS
SK-MEL-2 melanoma = tested on: SK-MEL-2 melanoma
SK-MEL-28 melanoma = tested on: SK-MEL-28 melanoma
SK-MEL-5 melanoma = tested on: SK-MEL-5 melanoma
SK-OV-3 ovarian = tested on: SK-OV-3 ovarian
SN12C renal = tested on: SN12C renal
SNB-19 CNS = tested on: SNB-19 CNS
SNB-75 CNS = tested on: SNB-75 CNS
SR leukemia = tested on: SR leukemia
SW-620 colon = tested on: SW-620 colon
T-47D breast = tested on: T-47D breast
TK-10 renal = tested on: TK-10 renal
U251 glioblastoma = tested on: U251 glioblastoma
UACC-257 melanoma = tested on: UACC-257 melanoma
UACC-62 melanoma = tested on: UACC-62 melanoma

For `N[C@H]1C[C@@H]1c1ccc(-c2cccc(O)c2)cc1`, the GI50 (NCI-H322M lung) was 74.5 µM, the TGI (NCI-H322M lung) was over 100 µM and the GI50 (NCI-H460 NSCLC) was 18.1 µM. For the same compound, the TGI (NCI-H460 NSCLC) was 34.6 µM, the GI50 (NCI-H522 lung) was 17.9 µM and the TGI (NCI-H522 lung) was 36.6 µM. It also gave a GI50 (NCI/ADR-RES ovarian) of 38.8 µM, a TGI (NCI/ADR-RES ovarian) of over 100 µM and a GI50 (OVCAR-3 ovarian) of 40.6 µM. It also gave a TGI (OVCAR-3 ovarian) of over 100 µM, a GI50 (OVCAR-4 ovarian) of 39.2 µM and a TGI (OVCAR-4 ovarian) of over 100 µM. It also gave a GI50 (OVCAR-5 ovarian) of 30.4 µM, a TGI (OVCAR-5 ovarian) of over 100 µM and a GI50 (OVCAR-8 ovarian) of 31.8 µM. It also gave a TGI (OVCAR-8 ovarian) of 99.8 µM, a GI50 (PC-3 prostate) of 29.6 µM and a TGI (PC-3 prostate) of 95.1 µM. For the same compound, the GI50 (RPMI-8226 leukemia) was 18.4 µM, the TGI (RPMI-8226 leukemia) was 34.9 µM and the GI50 (RXF 393 renal) was 22 µM. It also gave a TGI (RXF 393 renal) of 46.3 µM, a GI50 (SF-268 CNS) of 36.6 µM and a TGI (SF-268 CNS) of over 100 µM. It also gave a GI50 (SF-295 CNS) of 33.9 µM, a TGI (SF-295 CNS) of over 100 µM and a GI50 (SF-539 CNS) of 24.6 µM. It also gave a TGI (SF-539 CNS) of 63.1 µM, a GI50 (SK-MEL-2 melanoma) of 32.5 µM and a TGI (SK-MEL-2 melanoma) of 48.8 µM. It also gave a GI50 (SK-MEL-28 melanoma) of 22.5 µM, a TGI (SK-MEL-28 melanoma) of 43.9 µM and a GI50 (SK-MEL-5 melanoma) of 14.1 µM. For the same compound, the TGI (SK-MEL-5 melanoma) was 27.2 µM, the GI50 (SK-OV-3 ovarian) was 20 µM and the TGI (SK-OV-3 ovarian) was 48.8 µM. The GI50 (SN12C renal) was 44.7 µM, the TGI (SN12C renal) was over 100 µM and the GI50 (SNB-19 CNS) was 42.8 µM. It also gave a TGI (SNB-19 CNS) of over 100 µM, a GI50 (SNB-75 CNS) of 18.9 µM and a TGI (SNB-75 CNS) of 59.4 µM. It also gave a GI50 (SR leukemia) of 18.8 µM, a TGI (SR leukemia) of 33.1 µM and a GI50 (SW-620 colon) of 22.5 µM. It also gave a TGI (SW-620 colon) of 43.5 µM, a GI50 (T-47D breast) of 19.2 µM and a TGI (T-47D breast) of 38.4 µM. It also gave a GI50 (TK-10 renal) of 31.5 µM, a TGI (TK-10 renal) of 93.3 µM and a GI50 (U251 glioblastoma) of 24.1 µM. It also gave a TGI (U251 glioblastoma) of 55.5 µM, a GI50 (UACC-257 melanoma) of 19.2 µM and a TGI (UACC-257 melanoma) of 34.4 µM. For the same compound, the GI50 (UACC-62 melanoma) was 18.7 µM and the TGI (UACC-62 melanoma) was 40.8 µM.

Reference: PubChem BioAssay (NCI)
